Measurements as given in patent US11298312B2, “Composition comprising niacinamide and picolinamide” (Conopco, Inc., priority 2015, dated 2022).

system: psoriasin secretion; test: In-vitro generation of AMP (psoriasin) in differentiated NHEK keratinocytes, psoriasin ELISA of culture supernatant; type: cell-based, Human; conditions: NHEK cells, KGM + 2 mM calcium chloride, 72 h treatment; fold change over control (Example A); concentrations per Table 3
Procedure: In-Vitro Experiment with Combination of Niacinamide and Picolinamide as Per the Present Invention for Generation of AMP (Psoriasin): The experiment was done using the following protocol: Step 1: Human neonatal primary skin keratinocyte (NHEK) cells was obtained from Lonza®. The experiment was done with the above-mentioned cells with passage between 3 and 4. Then, the cells were seeded (35,000 cells/well) in 24 well plate with keratinocyte growth media (KGM) obtained from Invitrogen®. The plate was then incubated at 37±2° C. in a CO2 incubator for 48 hours. Step 2: After 48 hours of incubation, cell differentiation was induced by replacing media with fresh KGM supplemented with 2 mM calcium chloride solution. This was then followed by incubation at 37±2° C. in a CO2 incubator for 48 hours. Step 3: After that, the cells were treated with different concentration of Niacinamide and picolinamide and their combination at various concentration as per following Table 3 with keratinocyte growth media supplemented with 2 mM calcium chloride solution: Step 4: After the above treatment, cells were again incubated at 37±2° C. in a CO2 incubator for 72 hours Step 5: After 72 h of incubation, cell culture supernatant from each well was collected in a sterile tube. The samples were then stored at −80° C. until used for testing psoriasin secretion by standard ELISA technique using psoriasin ELISA kit obtained from Circulx® (No: CY—8073). In the current experiment, psoriasin was used as a marker for AMP. Step 6: The ELISA method was performed by using 100 μL of cell culture supernatant from each sample. The data is expressed in terms of fold change over control (without Niacinamide and/or picolinamide, Example A).

| Structure (SMILES) | Fold change in psoriasin secretion |
| --- | --- |
| NC(=O)c1cccnc1 [Example B, Niacinamide] | 1.8 |
| NC(=O)c1cccnc1 [Example C, Niacinamide] | 3.3 |
| NC(=O)c1ccccn1 [Example D, picolinamide] | 3.5 |
| NC(=O)c1ccccn1 [Example E, picolinamide] | 3.8 |
